What was measured:
[1] = molecular target: T1, PKS12 (Mycobacterium tuberculosis, UniProt I6XD69)
[2] = molecular target: T1, PKS12; remark: listed apart in the source

T1 sequence (I6XD69 whole entry): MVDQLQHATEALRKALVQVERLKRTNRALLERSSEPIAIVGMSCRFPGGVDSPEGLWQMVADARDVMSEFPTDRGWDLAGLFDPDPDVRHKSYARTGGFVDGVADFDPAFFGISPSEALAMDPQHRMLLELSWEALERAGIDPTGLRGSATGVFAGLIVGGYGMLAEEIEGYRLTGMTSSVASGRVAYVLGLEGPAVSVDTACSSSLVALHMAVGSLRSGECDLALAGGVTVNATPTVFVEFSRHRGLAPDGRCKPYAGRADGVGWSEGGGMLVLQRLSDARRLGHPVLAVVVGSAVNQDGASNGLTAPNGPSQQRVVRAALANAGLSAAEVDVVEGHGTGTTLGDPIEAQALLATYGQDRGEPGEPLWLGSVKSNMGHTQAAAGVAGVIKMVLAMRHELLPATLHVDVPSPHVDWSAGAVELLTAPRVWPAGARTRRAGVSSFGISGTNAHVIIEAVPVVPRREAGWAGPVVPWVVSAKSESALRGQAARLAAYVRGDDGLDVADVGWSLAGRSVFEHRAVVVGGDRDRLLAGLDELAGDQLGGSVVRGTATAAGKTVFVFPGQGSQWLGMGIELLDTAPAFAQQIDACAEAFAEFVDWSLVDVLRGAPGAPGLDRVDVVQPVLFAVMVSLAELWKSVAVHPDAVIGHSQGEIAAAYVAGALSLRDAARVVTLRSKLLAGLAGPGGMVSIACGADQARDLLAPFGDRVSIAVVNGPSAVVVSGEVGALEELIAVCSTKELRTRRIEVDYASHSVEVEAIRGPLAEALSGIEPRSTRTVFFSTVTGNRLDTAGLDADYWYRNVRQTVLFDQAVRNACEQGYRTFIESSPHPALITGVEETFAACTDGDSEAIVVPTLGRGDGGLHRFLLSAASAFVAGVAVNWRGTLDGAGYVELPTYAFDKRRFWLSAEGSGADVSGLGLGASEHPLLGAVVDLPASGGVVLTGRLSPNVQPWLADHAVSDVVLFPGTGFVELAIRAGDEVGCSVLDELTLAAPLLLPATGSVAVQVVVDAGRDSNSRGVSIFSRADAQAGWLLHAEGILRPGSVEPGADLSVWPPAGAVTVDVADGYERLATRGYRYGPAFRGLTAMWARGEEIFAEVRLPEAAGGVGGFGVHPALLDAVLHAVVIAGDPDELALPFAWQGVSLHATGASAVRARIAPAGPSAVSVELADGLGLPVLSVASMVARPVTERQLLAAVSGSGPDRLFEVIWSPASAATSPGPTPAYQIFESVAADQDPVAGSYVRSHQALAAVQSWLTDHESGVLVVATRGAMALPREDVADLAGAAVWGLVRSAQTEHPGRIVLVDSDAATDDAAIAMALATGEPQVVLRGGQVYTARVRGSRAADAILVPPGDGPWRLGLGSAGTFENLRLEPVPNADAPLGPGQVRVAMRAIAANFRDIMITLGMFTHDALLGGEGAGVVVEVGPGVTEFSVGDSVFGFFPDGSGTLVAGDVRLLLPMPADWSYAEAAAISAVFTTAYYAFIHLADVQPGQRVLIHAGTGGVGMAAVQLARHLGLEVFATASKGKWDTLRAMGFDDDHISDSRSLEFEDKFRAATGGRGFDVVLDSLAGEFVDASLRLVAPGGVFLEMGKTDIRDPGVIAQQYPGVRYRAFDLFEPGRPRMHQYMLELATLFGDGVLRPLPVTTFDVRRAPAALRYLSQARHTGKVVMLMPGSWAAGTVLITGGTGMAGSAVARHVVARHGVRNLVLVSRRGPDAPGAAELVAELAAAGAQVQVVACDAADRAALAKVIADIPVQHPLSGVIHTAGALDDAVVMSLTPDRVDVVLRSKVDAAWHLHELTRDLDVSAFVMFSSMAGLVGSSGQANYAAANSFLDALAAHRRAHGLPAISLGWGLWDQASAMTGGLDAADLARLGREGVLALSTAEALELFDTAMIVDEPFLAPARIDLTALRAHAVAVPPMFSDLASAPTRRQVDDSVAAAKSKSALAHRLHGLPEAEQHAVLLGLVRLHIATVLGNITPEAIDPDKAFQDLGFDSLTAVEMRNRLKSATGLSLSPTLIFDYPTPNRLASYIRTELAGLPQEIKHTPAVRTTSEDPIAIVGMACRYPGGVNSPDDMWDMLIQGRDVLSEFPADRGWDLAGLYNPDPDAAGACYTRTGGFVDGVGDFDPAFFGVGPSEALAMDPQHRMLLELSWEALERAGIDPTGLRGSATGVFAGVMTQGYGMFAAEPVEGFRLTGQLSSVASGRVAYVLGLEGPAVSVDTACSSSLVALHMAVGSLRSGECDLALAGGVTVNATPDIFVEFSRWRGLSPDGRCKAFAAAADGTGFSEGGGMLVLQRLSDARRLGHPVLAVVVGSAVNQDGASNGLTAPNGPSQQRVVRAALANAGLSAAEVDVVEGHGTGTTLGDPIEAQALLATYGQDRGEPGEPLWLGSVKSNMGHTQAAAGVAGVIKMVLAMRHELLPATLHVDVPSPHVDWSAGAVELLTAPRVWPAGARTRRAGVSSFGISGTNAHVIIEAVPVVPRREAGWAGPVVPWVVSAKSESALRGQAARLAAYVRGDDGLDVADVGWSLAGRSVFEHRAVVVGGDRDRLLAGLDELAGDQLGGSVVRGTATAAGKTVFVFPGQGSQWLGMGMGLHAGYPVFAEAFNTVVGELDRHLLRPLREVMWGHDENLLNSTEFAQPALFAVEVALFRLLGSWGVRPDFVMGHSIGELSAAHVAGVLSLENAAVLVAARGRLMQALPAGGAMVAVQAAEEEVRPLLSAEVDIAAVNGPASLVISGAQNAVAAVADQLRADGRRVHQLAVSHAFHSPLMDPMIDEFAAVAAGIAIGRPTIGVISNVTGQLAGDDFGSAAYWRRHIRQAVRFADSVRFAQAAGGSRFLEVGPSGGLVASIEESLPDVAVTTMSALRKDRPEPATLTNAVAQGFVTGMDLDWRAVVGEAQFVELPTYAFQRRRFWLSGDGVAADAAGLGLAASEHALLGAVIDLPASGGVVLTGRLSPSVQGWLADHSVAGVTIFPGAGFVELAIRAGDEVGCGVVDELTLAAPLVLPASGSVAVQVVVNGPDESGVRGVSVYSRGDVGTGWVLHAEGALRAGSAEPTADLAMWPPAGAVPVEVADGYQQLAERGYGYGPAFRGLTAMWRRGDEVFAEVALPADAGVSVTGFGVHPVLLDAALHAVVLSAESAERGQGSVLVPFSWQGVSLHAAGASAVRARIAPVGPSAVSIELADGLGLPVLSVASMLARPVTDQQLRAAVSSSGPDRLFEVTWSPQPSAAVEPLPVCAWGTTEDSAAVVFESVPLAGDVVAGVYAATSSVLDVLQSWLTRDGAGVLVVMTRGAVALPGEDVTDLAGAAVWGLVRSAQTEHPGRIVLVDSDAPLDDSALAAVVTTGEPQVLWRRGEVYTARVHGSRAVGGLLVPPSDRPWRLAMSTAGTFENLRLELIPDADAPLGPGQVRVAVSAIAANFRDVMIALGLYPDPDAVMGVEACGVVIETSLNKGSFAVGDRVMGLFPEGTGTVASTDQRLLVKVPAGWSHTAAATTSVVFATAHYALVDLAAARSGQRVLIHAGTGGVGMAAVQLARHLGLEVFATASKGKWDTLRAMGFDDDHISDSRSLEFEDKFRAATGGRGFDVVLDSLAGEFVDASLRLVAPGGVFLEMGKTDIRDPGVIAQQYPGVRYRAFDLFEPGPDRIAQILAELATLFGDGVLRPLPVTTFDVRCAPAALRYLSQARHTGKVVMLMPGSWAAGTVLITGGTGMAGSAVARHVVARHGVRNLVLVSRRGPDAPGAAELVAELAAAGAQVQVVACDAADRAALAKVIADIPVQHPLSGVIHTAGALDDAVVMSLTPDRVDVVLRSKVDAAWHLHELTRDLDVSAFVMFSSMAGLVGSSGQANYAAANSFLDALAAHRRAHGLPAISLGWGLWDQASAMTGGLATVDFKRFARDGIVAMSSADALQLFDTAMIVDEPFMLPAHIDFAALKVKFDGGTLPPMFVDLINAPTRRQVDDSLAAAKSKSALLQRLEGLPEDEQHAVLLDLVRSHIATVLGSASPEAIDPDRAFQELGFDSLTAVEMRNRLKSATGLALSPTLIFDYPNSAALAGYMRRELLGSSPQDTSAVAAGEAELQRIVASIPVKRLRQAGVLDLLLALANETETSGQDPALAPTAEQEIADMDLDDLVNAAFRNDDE

| SMILES | inhibition at 100 μM [1] | 14C labelling of protein, SDS-PAGE phosphorimaging [2] |
| --- | --- | --- |
| C/C=C/C/C=C/CCC(=O)[C@H]1O[C@H]1C(N)=O [cerulenin] | incubation of PKS12 protein with KS inhibitor cerulenin showed no radioactive bands | – |
| CC(C)(COP(=O)(O)OP(=O)(O)OC[C@H]1O[C@@H](n2cnc3c(N)ncnc32)[C@H](O)[C@@H]1OP(=O)(O)O)[C@@H](O)C(=O)NCCC(=O)NCCSC(=O)CC(=O)O [malonyl CoA] | – | SDS-PAGE gel-binding assays clearly showed that PKS12 could be radiolabeled with both of these substrates |
| CC(C(=O)O)C(=O)SCCNC(=O)CCNC(=O)[C@H](O)C(C)(C)COP(=O)(O)OP(=O)(O)OC[C@H]1O[C@@H](n2cnc3c(N)ncnc32)[C@H](O)[C@@H]1OP(=O)(O)O (stereo partly drawn) [methylmalonyl CoA] | – | SDS-PAGE gel-binding assays clearly showed that PKS12 could be radiolabeled with both of these substrates |

Reference: publication PMC2443190, “Novel Intermolecular Iterative Mechanism for Biosynthesis of Mycoketide Catalyzed by a Bimodular Polyketide Synthase” (PLoS Biology, 2008)
